Measured values: patent US20120208883A1, “TREATMENT OF ONCOLOGICAL DISEASES” (priority 2008, published 2012)

Columns and labels:
[1] = test system: A2780 ADR cell line; test: Anti-tumoral activity in vivo, A2780 ADR subcutaneous tumor; set-up: species or system CD1 nude mice; details: acetyl L-carnitine 200 mg/kg po qdx5/wx3w, doxorubicin 6 mg/kg iv q7dx3
Experimental: (§1) Anti-tumoral activity in vivo (CD1 Nude mouse) using five different tumoral cell lines.
The tumors were generated by subcutaneous injection in the right flank of CD1 nude mice of A2780 ADR tumor cells (5×10^6/100 μl/mouse) in 0.1 ml medium Tc199.
(§2) Treatments started when tumors were palpable, 8 mice per group were used.
(§3) Acetyl L-carnitine was administered po (oral administration) at 200 mg/kg according to the schedule qdx5/w (once per day for 5 days per week).
The reference compound doxorubicin was delivered intravenously according to the schedule q7dx3, at a dose of 6 mg/kg.
(§4) Tumor volume (TV) was calculated biweekly by measuring the diameter of the tumors with a Vernier caliper according to the formula
(§5) where d and D are the shortest and longest diameters, respectively. The efficacy of the drug treatment was assessed as the tumor volume inhibition according to the formula reported underneath: […]

[2] = test system: tumour mass; details: WO/2000/06134; ALC 100 mg/kg orally; cited from earlier work
[3] = test system: NCI-H460 non-small cell lung carcinoma; test: Antitumor activity of L-carnitine in combination with cisplatin against NCI-H460; format: in vivo
Experimental: Treatments started three days after tumor injection. To evaluate the antitumor activity, tumor diameters were measured with a Vernier caliper. […] When tumors reached a volume of 1-2 cm^3, mice were sacrificed by cervical dislocation. Body weight recording was carried out through the study and mortality was noted.

[4] = test system: NCI-H460 NSCLC tumor cell line; test: Anti-proliferative activity in vitro (MTT assay), NCI-H460; format: cell-based; details: 10 mM, 72 h of treatment, 0.1% FBS
Experimental: (§6) The anti-proliferative activity of acetyl L-carnitine was evaluated in two different NSCLC tumor cell lines (NCI-H460 and NCI-H1650) and on one ovarian tumor cell line (A2780/Dx multidrug-resistant).
(§7) Cells were seeded in 96-well tissue culture plates and treated for three days (NCI-H460 NSCLC) or six days (NCI-H1650 NSCLC and A2780/Dx cells) with acetyl L-carnitine (10 mM in 0.1% FBS). To test the effect of acetyl L-carnitine on cell growth, tumor cells were seeded in 96-well tissue culture plates at approximately 10% confluence and were allowed to attach and recover for at least 24 h. Tumor cells were exposed to treatment protocol for 72 h or 6 days in 0.1% FBS at 37° C., then medium culture (RPMI 1640) was removed and 100 μl/well of medium were added containing 25 μl/well of a solution 5 mg/ml tetrazolium salt (MTT) assay, (final 1 mg/ml). Plates were kept at 37° C. in incubator with 5% CO2 for 2 h for the formation of blue crystals. […] The cell survival was determined as optical density by a Multiskan spectrofluorimeter at 570 nm (Hansen M. B., et al., J. Immunol. Methods, 1989, 119, 203). Percentage of tumor cell inhibition in the presence of 10 mM acetyl L-carnitine was evaluated and compared with that obtained in the absence of acetyl L-carnitine applying the statistical comparison by means of the Mann-Whitney test.

[5] = test system: NCI-H1650 NSCLC tumor cell line; test: Anti-proliferative activity in vitro (MTT assay), NCI-H1650; format: cell-based; details: 10 mM, 6 days of treatment, 0.1% FBS
Experimental: as §6, §7

[6] = test system: A2780/Dx multidrug-resistant ovarian tumor cell line; test: Anti-proliferative activity in vitro (MTT assay), A2780/Dx; format: cell-based; details: 10 mM, 6 days of treatment, 0.1% FBS
Experimental: as §6, §7

[7] = test system: NCI-H460 cell line; test: Anti-tumoral activity in vivo, NCI-H460 subcutaneous tumor; set-up: species or system CD1 nude mice; details: acetyl L-carnitine 200 mg/kg po qdx5/wx4w; cisplatin 4 mg/kg ip q4dx5
Experimental: as §1
(§8) The tumors were generated by subcutaneous injection in the right flank of CD1 nude mice of NCI-H460 tumor cells (3×10^6/100 μl/mouse), in 0.1 ml medium Tc199.
as §2, §3, §4, §5

[8] = test system: NCI-H460 metastatic clone; test: Anti-tumoral and antimetastatic activity in vivo, NCI-H460 metastatic clone; set-up: species or system CD1 nude mice; details: for antimetastatic effect on spontaneous lung metastases: NCI-H460 metastatic clone injected subcutaneously; for % inhibition of lung metastases / TVI %: acetyl L-carnitine 200 mg/kg po qdx5/wx4w, cisplatin 5 mg/kg iv q7dx4
Experimental: as §1, §8, §2, §3, §4, §5

[9] = test system: Human A549 NSCLC cell line; test: Anti-tumoral activity in vivo, A549 subcutaneous tumor; set-up: species or system CD1 nude mice; details: acetyl L-carnitine 200 mg/kg po qdx5/wx4w, cisplatin 4 mg/kg ip q4dx6
Experimental: as §1
The tumors were generated by subcutaneous injection in the right flank of CD1 nude mice of A549 tumor cells (3×10^6/100 μl/mouse) in 0.1 ml medium Tc199.
as §2, §3, §4, §5

[10] = test system: NCI-H1650 cell line; test: Anti-tumoral activity in vivo, NCI-H1650 subcutaneous tumor; set-up: species or system CD1 nude mice; details: acetyl L-carnitine 200 mg/kg po qdx5/wx3w; cisplatin 4 mg/kg ip q4dx6
Experimental: as §1
The tumors were generated by subcutaneous injection in the right flank of CD1 nude mice of NCI-H1650 tumor cells (5×10^6/200 μl/mouse) in suspension in 0.1 ml medium Tc199+0.1 ml Matrigel.
as §2, §3, §4, §5

[11] = test system: SJSA-1 (with amplification of mdm2) osteosarcoma cells; test: Antiproliferative activity on SJSA-1 osteosarcoma cells (MTT assay); format: cell-based
Experimental: The evaluation of antiproliferative activity was carried out by MTT assay.

COc1cccc2c1C(=O)c1c(O)c3c(c(O)c1C2=O)C[C@@](O)(C(=O)CO)C[C@@H]3O[C@H]1C[C@H](N)[C@H](O)[C@H](C)O1 [Doxorubicin, doxorubicin, reference compound]
TVI % [1]: 60 ± 11%

CC(=O)O[C@H](CC(=O)[O-])C[N+](C)(C)C [acetyl L-carnitine (ALC)]
effect on the formation of lung metastases [2]: significant inhibitory effect

C[N+](C)(C)C[C@H](O)CC(=O)[O-] [L-carnitine]
potentiation of the cytotoxic activity of cisplatin ([3]; L-carnitine 200 mg/mice/day given chronically): not able to potentiate the cytotoxic activity of cisplatin

CC(=O)O[C@H]1C(=O)[C@@]2(C)[C@H]([C@H](OC(=O)c3ccccc3)[C@]3(O)C[C@H](OC(=O)[C@H](O)[C@@H](NC(=O)c4ccccc4)c4ccccc4)C(C)=C1C3(C)C)[C@]1(OC(C)=O)CO[C@@H]1C[C@@H]2O [Paclitaxel, paclitaxel, reference compound]
inhibition of tumour growth (TVI) [2]: 88%

CC(=O)O[C@H](CC(=O)[O-])C[N+](C)(C)C [Acetyl L-carnitine, acetyl L-carnitine]
Tumor cell inhibition % ([4]; P <0.001): 32%
Absorbance ± SE at 570 nm ([4]; control 745 ± 18): 509 ± 8
Tumor cell inhibition % ([5]; P <0.001): 41%
Absorbance ± SE at 570 nm ([5]; control 484 ± 25): 285 ± 11
Tumor cell inhibition % [6]: 29%
Absorbance ± SE at 570 nm ([6]; control 331 ± 18): 234 ± 16
TVI % ± SE [7]: 40 ± 6%
antimetastatic effect on spontaneous lung metastases [8]: statistically significant antimetastatic effect
% inhibition of lung metastases [8]: 50%
TVI % [8]: 34 ± 5%
TVI % [9]: 27 ± 3%
TVI % ([9]; listed as acetyl L-carnitine): 27%
TVI % [10]: 19 ± 4%
TVI % [1]: 28 ± 11%
TVI % ([1]; listed as acetyl L-carnitine): 28%
Tumor cell inhibition % ([11]; 10 mM, 72 h of exposure followed by 72 h of recovery, 0.1% FBS, P 0.0037 vs control): 24%
antiproliferative activity compared with cisplatin ([11]; 72 h of exposure, medium containing 0.1% FBS): statistically significant more active than cisplatin
effect on tumour growth [2]: no effect on tumour growth

N.N.[Cl][Pt][Cl] [Cisplatin, cisplatin, reference compound]
TVI % ± SE [7]: 41 ± 5%
antimetastatic effect on spontaneous lung metastases [8]: ineffective
% inhibition of lung metastases [8]: 0%
TVI % [8]: 41 ± 5%
TVI % [9]: 49 ± 13%
TVI % ([9]; listed as cisplatin): 49%
TVI % [10]: 23 ± 3%
TVI % [1]: 60%
TVI % ± SE +32 ([3]; day +32, cisplatin 4 mg/kg ip q4d/wx3w, L-carnitine 200 mg/kg po qdx5/wx3w): 80 ± 21%
